One assay concerns the target soluble human BACE1 catalytic domain (Homo sapiens (Human), UniProt P56817). As to the kind of experiment: BACE1 HTRF FRET Assay. Particulars: BACE1 Ki (nM). For orientation: TR-FRET usually uses a lanthanide donor and a delayed reading to cut background.
purified human autoBACE-2, sequence (Q9Y5Z0 63-473): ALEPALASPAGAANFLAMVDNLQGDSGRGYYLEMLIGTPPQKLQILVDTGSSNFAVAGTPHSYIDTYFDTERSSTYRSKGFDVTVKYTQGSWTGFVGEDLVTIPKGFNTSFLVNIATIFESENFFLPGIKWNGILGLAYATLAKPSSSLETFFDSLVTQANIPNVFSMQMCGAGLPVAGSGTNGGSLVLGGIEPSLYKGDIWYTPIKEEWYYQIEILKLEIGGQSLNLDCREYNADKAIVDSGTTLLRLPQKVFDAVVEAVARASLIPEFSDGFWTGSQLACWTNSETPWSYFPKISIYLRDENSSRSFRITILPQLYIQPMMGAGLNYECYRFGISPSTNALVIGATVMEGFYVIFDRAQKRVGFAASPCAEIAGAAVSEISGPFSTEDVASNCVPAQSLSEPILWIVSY
soluble human BACE1 catalytic domain, sequence (P56817 75-416): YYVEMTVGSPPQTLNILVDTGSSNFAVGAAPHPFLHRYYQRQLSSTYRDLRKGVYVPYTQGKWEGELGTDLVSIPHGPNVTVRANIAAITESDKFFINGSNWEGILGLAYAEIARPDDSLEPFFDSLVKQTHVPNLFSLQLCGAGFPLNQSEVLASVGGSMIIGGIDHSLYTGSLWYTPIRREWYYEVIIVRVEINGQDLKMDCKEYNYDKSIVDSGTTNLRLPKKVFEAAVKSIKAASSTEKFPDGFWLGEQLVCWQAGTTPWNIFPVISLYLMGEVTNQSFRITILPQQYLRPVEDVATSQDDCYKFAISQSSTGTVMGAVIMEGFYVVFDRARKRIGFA
By Ki is commonly meant the dissociation constant of the complex between target and ligand, obtained from inhibition or displacement. As for `Cc1nc2cc(CC3(C)C(=N)N[C@](C)(c4cc(F)ccc4F)CS3(=O)=O)ccc2o1` (single isomer, unassigned) [Example 32a-b], the Ki stood at 4640 nM.

Staying with this assay, now noted: read-out: BACE1 % Inh. at 10 μM, at 10 μM.
For the compound `CN(C)CC(=O)Nc1cc(F)c(F)c([C@]2(C)CS(=O)(=O)C(C)(C)C(=N)N2)c1` [Example 9bw], the inhibition at 10 µM turned out to be 48%. In the case of `CC1(C)C(=N)N[C@](C)(c2nc(-c3cncc(C#N)c3)ccc2F)CS1(=O)=O` [Example 16d], the inhibition at 10 µM amounted to 29%.

Staying with this assay, now noted: read-out: BACE1 Ki.
For the compound `C[C@@]1(c2sc(-c3cccc(C#N)c3)cc2F)CS(=O)(=O)[C@@](C)(c2ccccn2)C(=N)N1` [Example 27bo-a], the Ki was 132 nM. Turning to `CC1(C)C(=N)N[C@](C)(c2sc(-c3ccc4nncn4c3)cc2Cl)CS1(=O)=O` [Example 27p], the Ki amounted to 2530 nM.

On to `COCCn1cc(-c2cc(Cl)c([C@]3(C)CS(=O)(=O)C(C)(C)C(=N)N3)s2)cn1` [Example 27r], for which the inhibition constant Ki was 448 nM. In the case of `COCC1(COC)C(=N)N[C@](C)(c2sc(-c3cccc(-c4nnco4)c3)cc2Cl)CS1(=O)=O` [Example 27bu], the Ki came to 1170 nM.

`COc1cccc(-c2cc(F)c([C@]3(C)CS(=O)(=O)[C@](C)(CC(F)(F)F)C(=N)N3)s2)c1` [Example 27bl-b]: the Ki came out at 7310 nM.

For the compound `COc1cccn2cc(-c3cc(Cl)c([C@]4(C)CS(=O)(=O)C(C)(C)C(=N)N4)s3)nc12` [Example 28a], the inhibition constant (Ki) came to 804 nM. As for `C[C@@]1(c2cccc(F)c2)C(=N)N[C@](C)(c2sc(-c3cccc(C#N)c3)cc2F)CS1(=O)=O` [Example 27br-b], the Ki was found to be 4930 nM. Regarding `C[C@@]1(c2ccc(F)cc2F)CS(=O)(=O)[C@@](C)(c2cccc(OCC3CC3)c2)C(=N)N1` [Example 34b], the Ki was determined as 1130 nM. `CC1(C)C(=N)N[C@](C)(c2nc3ccc(-c4ccc(F)cc4)cc3s2)CS1(=O)=O` [Example 29b]: the Ki stood at 2330 nM.

The same assay, now with this note: read-out: BACE1 Ki; Ki calculated from IC50 using the Cheng-Prusoff equation.
As to `COc1cnc(C(=O)Nc2ccc(F)c([C@]3(C)CS(=O)(=O)[C@](C)(C(C)C)C(=N)N3)c2)cn1` [Example 9ec-b], the Ki was 522 nM. As to `Cc1nnc(C(=O)Nc2ccc(F)c([C@]3(C)CS(=O)(=O)C(C)(C)C(=N)N3)c2)o1` [Example 9i], the Ki is 185 nM. The same measure, in the same setting: next, `C[C@]1(CC2CC2)C(=N)N[C@](C)(c2cc(NC(=O)c3ccc(Cl)cn3)ccc2F)CS1(=O)=O` [Example 9di-a]: 4.3 nM; `C[C@@]1(c2cc(NC(=O)c3ccc(F)cn3)ccc2F)CS(=O)(=O)[C@@](C)(c2cccc(C(F)(F)F)c2)C(=N)N1` [Example 9co-a]: 5.8 nM. In the case of `COc1cnc(C(=O)Nc2ccc(F)c([C@]3(C)CS(=O)(=O)[C@@](C)(c4cccc(F)c4)C(=N)N3)c2)cn1` [Example 9dd-a], the Ki is 3.9 nM. For the compound `CC[C@@]1(C)C(=N)N[C@](C)(c2cc(NC(=O)c3ccc(F)cn3)ccc2F)CS1(=O)=O` [Example 9cl-a], the Ki is 5.9 nM. With `CC1(C)C(=N)N[C@](C)(c2cc(NC(=O)C3(C#N)CC3)cc(F)c2F)CS1(=O)=O` [Example 9bj], the Ki is 485 nM. On the same count and under the same terms, for `CC1(C)C(=N)N[C@](C)(c2sc(-c3cccc(-c4cnco4)c3)cc2Cl)CS1(=O)=O` [Example 27c] the value was 12.8 nM; for `C[C@@]1(c2cc(NC(=O)c3ccc(F)cn3)ccc2F)CS(=O)(=O)[C@@](C)(C2CCC2)C(=N)N1` [Example 9dv-a], 7 nM; for `CCC(=O)Nc1ccc(F)c([C@]2(C)CS(=O)(=O)C(C)(C)C(=N)N2)c1` [Example 9as], 521 nM. Turning to `CC[C@]1(C)C(=N)N[C@](C)(c2cc(NC(=O)c3ccc(F)cn3)ccc2F)CS1(=O)=O` [Example 9cl-b], the Ki was 22.5 nM.

Take `COc1ccc(C(=O)Nc2ccc(F)c([C@]3(C)CS(=O)(=O)[C@@](C)(CC(F)(F)F)C(=N)N3)c2)nc1` [Example 9dq-a]: the inhibition constant Ki was 8.5 nM. Still for that read-out and setting: for `Cc1noc(CC(=O)Nc2cc(F)c(F)c([C@]3(C)CS(=O)(=O)C(C)(C)C(=N)N3)c2)n1` [Example 9bq] the value was 4960 nM. Take `CCc1cccc(NC(=O)c2cc(Cl)c([C@]3(C)CS(=O)(=O)C(C)(C)C(=N)N3)s2)n1` [Example 19]: the Ki was 134 nM. The same measure, in the same setting: next, `COc1ccc(C(=O)Nc2ccc(F)c([C@]3(C)CS(=O)(=O)C(C)(C)C(=N)N3)c2)nc1` [Example 9a]: 4.6 nM; `Cc1cnc(C(=O)Nc2ccc(F)c([C@]3(C)CS(=O)(=O)C(C)(C)C(=N)N3)c2)cn1` [Example 9ak]: 26 nM; `CC1(C)C(=N)N[C@](C)(c2sc(-c3cncc(-c4cnco4)c3)cc2Cl)CS1(=O)=O` [Example 27ac]: 22.3 nM. On to `CC1(C)C(=N)N[C@](C)(c2nc(NC(=O)c3ccc(F)cn3)ccc2F)CS1(=O)=O` [Example 9cd], for which the Ki is 48 nM.

For `CC1(C)C(=N)N[C@](C)(c2sc(-c3cc(F)cc(-c4cnco4)c3)cc2Cl)CS1(=O)=O` [Example 27aa], the Ki was 26.1 nM. On the same count and under the same terms, next, `CC(=O)Nc1ccc(F)c([C@]2(C)CS(=O)(=O)C(C)(C)C(=N)N2)c1` [Example 9an]: 1440 nM; `CC1(C)C(=N)N[C@](C)(c2cc(NC(=O)CC3CC3)ccc2F)CS1(=O)=O` [Example 9ar]: 915 nM; `COc1ccc(C(=O)Nc2cc(F)c(F)c([C@]3(C)CS(=O)(=O)C(C)(C)C(=N)N3)c2)nc1` [Example 9m]: 7.6 nM.

Turning to `CC(C)[C@@]1(C)C(=N)N[C@](C)(c2cc(NC(=O)c3ccc(F)cn3)ccc2F)CS1(=O)=O` [Example 9ea-a], the Ki was 31.6 nM. Turning to `CC1(C)C(=N)N[C@](C)(c2cc(NC(=O)C(F)F)ccc2F)CS1(=O)=O` [Example 9au], the Ki is 195 nM. For `COc1cnc(C(=O)Nc2ccc(F)c([C@]3(C)CS(=O)(=O)[C@@](C)(CC4CCOCC4)C(=N)N3)c2)cn1` [Example 9ct-a], the Ki is 3.9 nM. On the same count and under the same terms, for `CC1(C)C(=N)N[C@](C)(c2c(F)c(F)cc(NC(=O)c3ccc(Cl)cn3)c2F)CS1(=O)=O` [Example 9ab] the value was 9.6 nM. `CC1(C)C(=N)N[C@](C)(c2sc(-c3nnc(-c4ccc(C#N)cc4)o3)cc2Cl)CS1(=O)=O` [Example 27be]: the inhibition constant (Ki) is 49.2 nM.

Regarding `CC1(C)C(=N)N[C@](C)(c2cc(NC(=O)C3(C#N)CC3)ccc2F)CS1(=O)=O` [Example 9ah], the Ki was 210 nM. With `CC1(C)C(=N)N[C@](C)(c2cc(NC(=O)c3ccno3)cc(F)c2F)CS1(=O)=O` [Example 9bs], the inhibitory constant (Ki) was 171 nM.

The assay is the same for the next values; noted with them: read-out: BACE1 inhibition, % Inh. at 10 μM, at 10 μM.
On to `CC1(C)C(=N)N[C@](C)(c2cc(N)cc(F)c2F)CS1(=O)=O` [Example 2A-5], for which the inhibition at 10 µM was found to be 51%. For `C[C@@]1(c2cc(N)ccc2F)CS(=O)(=O)[C@](C)(CC2CC2)C(=N)N1` [Entry 48], the inhibition at 10 µM was 37%.

Still in this assay, the particulars now being: read-out: BACE1 inhibition, Ki.
`C[C@@]1(c2cc(N)ccc2F)CS(=O)(=O)[C@@](C)(c2cccc(C(F)(F)F)c2)C(=N)N1` [Entry 68]: the Ki amounted to 1400 nM. On the same count and under the same terms, for `C[C@@]1(c2cc(N)ccc2F)CS(=O)(=O)[C@@](C)(C2CCC2)C(=N)N1` [Entry 39] the value was 1700 nM; for `CC(C)[C@@]1(C)C(=N)N[C@](C)(c2cc(N)ccc2F)CS1(=O)=O` [Entry 27], 4800 nM.

As to `CC1(C)C(=N)N[C@](C)(c2cc(Br)cs2)CS1(=O)=O` [Example 6C-1], the inhibitory constant (Ki) was 4700 nM. In the case of `C[C@@]1(c2cc(N)ccc2F)CS(=O)(=O)[C@@](C)(c2cccc(F)c2)C(=N)N1` [Entry 60], the Ki is 1100 nM. With `C[C@@]1(c2cc(F)ccc2F)CS(=O)(=O)[C@@](C)(c2cccc(O)c2)C(=N)N1` [Example 34c-a], the Ki was found to be 1000 nM. Same read-out and setting: next, `CC1(C)C(=N)N[C@](C)(c2c(F)ccc(F)c2F)CS1(=O)=O` [Entry 14]: 2400 nM; `C[C@]1(CC(F)(F)F)C(=N)N[C@](C)(c2cc(N)ccc2F)CS1(=O)=O` [Entry 35]: 3000 nM. Turning to `CC1(C)C(=N)N[C@](C)(c2nc(N)ccc2F)CS1(=O)=O` [Example 2F-3], the Ki is 6200 nM.

A further assay has as its target purified human autoBACE-2 (Homo sapiens (Human), UniProt Q9Y5Z0). As to the kind of experiment: BACE-2 Assay (BACE-HTRF assay). In kind it is biochemical. To be noted: Ki calculated from IC50 using the Cheng-Prusoff equation; read-out: BACE2 Ki. The procedure:
Inhibitor IC50s at purified human autoBACE-2 are determined in a time-resolved endpoint proteolysis assay that measures hydrolysis of the QSY7-[…]-Eu-amide FRET peptide substrate (BACE-HTRF assay). […] DMSO is present at 5% final concentration in the assay. Following laser excitation of sample wells at 320 nm, the fluorescence signal at 620 nm is collected for 400 ms following a 50 μs delay on a RUBYstar HTRF plate reader (BMG Labtechnologies). Raw RFU data is normalized to maximum (1.0 nM BACE/DMSO) and minimum (no enzyme/DMSO) RFU values. […] The Ki values are calculated from the IC50 using the Cheng-Prusoff equation.
As to `COc1cnc(C(=O)Nc2ccc(F)c([C@]3(C)CS(=O)(=O)[C@](C)(C(C)C)C(=N)N3)c2)cn1` [Example 9ec-b], the Ki was 101 to 700 nM. For `Cc1nnc(C(=O)Nc2ccc(F)c([C@]3(C)CS(=O)(=O)C(C)(C)C(=N)N3)c2)o1` [Example 9i], the Ki is 49 nM. Consider `CC1(C)C(=N)N[C@](C)(c2cc(N)cc(F)c2F)CS1(=O)=O` [Example 2A-5], for which the Ki was 500 to 10000 nM. As to `C[C@@]1(c2cc(NC(=O)c3ccc(Cl)cn3)ccc2F)CS(=O)(=O)[C@@](C)(c2cccc(F)c2)C(=N)N1` [Example 9db-b], the Ki is 11 to 100 nM. On to `COc1cnc(C(=O)Nc2ccc(F)c([C@]3(C)CS(=O)(=O)[C@](C)(c4cc(C(F)(F)F)ccn4)C(=N)N3)c2)cn1` [Example 9ee-b], for which the Ki was 11 to 100 nM. For `CC1(C)C(=N)N[C@](C)(c2nc(NC(=O)c3cnc(C(F)F)cn3)ccc2F)CS1(=O)=O` [Example 9cj], the Ki was 21 nM.

For `CC[C@]1(C)C(=N)N[C@](C)(c2cc(NC(=O)c3ccc(OC)cn3)ccc2F)CS1(=O)=O` [Example 9cm-b], the Ki was 11 to 100 nM.

As for `CC1(C)C(=N)N[C@](C)(c2sc(-c3cccc(-c4nnco4)c3)cc2Cl)CS1(=O)=O` [Example 27ae], the Ki is 21 nM. `COc1cccc2cc(-c3ccc(F)c([C@]4(C)CS(=O)(=O)C(C)(C)C(=N)N4)c3)[nH]c12` [compound 11]: the Ki was under 200 nM.

Turning to `CC1(C)C(=N)N[C@](C)(c2cc(NC(=O)c3cnc(OCC4CC4)cn3)ccc2F)CS1(=O)=O` [Example 9p], the inhibition constant Ki was 16 nM. As for `CC[C@]1(C)C(=N)N[C@](C)(c2cc(NC(=O)c3cnc(OC)cn3)ccc2F)CS1(=O)=O` [Example 9cn-b], the Ki was 11 to 100 nM.

Values taken from patent publication US9499502B2, “5-substituted iminothiazines and their mono- and dioxides as BACE inhibitors, compositions, and their use” (Merck Sharp & Dohme Corp., priority 2011, dated 2016).
